# The source made the active and inactive calls. The rule behind the calls is not given here. Non-standard residues stand in square brackets, D forms with d. Residues, ends and D or L forms follow the SMILES beside them. *: point of attachment. Dolaproine = CO[C@@H]([C@@H]1CCCN1)[C@@H](C)C(=O)O; Abu(3S-N3) = C[C@H](N=[N+]=[N-])[C@H](N)C(=O)O; Dil = CC[C@H](C)[C@H](NC)[C@@H](CC(=O)O)OC; Abu(3S-NH2) = C[C@H](N)[C@H](N)C(=O)O; Dap(N3) = [N-]=[N+]=NC[C@H](N)C(=O)O; NMe2Val = CC(C)[C@@H](C(=O)*)N(C)C; Aha = [N-]=[N+]=NCC[C@H](N)C(=O)O; Pra = C#CC[C@H](N)C(=O)O; Dab = NCC[C@H](N)C(=O)O; Dap = NC[C@H](N)C(=O)O; NHtBu = CC(C)(C)N*; OtBu = CC(C)(C)O*
# What was measured:
# HCC1954 = experiment: Growth inhibition of human HCC1954 cells after 4 to 6 days by Presto blue assay; format: functional
# PC-3 = experiment: Growth inhibition of human PC3 cells after 4 to 6 days by Presto blue assay; format: functional
# Bos taurus = species: Bos taurus; experiment: Inhibition of bovine brain tubulin polymerization at 10 uM after 60 mins by spectrophotometric method
Compound,GI50 (HCC1954),GI50 (PC-3),inhibition (Bos taurus)
CC[C@H](C)[C@@H]([C@@H](CC(=O)N1CCC[C@H]1[C@H](OC)[C@@H](C)C(=O)NCCc1ccccn1)OC)N(C)C(=O)[C@@H](NC(=O)[C@H](C(C)C)N(C)C)[C@H](C)N=[N+]=[N-],3.7 nM,5.1 nM,–
CC[C@H](C)[C@@H]([C@@H](CC(=O)N1CCC[C@H]1[C@H](OC)[C@@H](C)C(=O)N[C@H](C)[C@@H](O)c1ccccc1)OC)N(C)C(=O)[C@@H](NC(=O)[C@H](C(C)C)N(C)C)[C@H](C)N=[N+]=[N-],34 nM,50 nM,–
CC[C@H](C)[C@@H]([C@@H](CC(=O)N1CCC[C@H]1[C@H](OC)[C@@H](C)C(=O)NCCc1ccc(Cl)cc1)OC)N(C)C(=O)[C@@H](NC(=O)[C@H](C(C)C)N(C)C)[C@H](C)N=[N+]=[N-],33 nM,40 nM,–
CC[C@H](C)[C@@H]([C@@H](CC(=O)N1CCC[C@H]1[C@H](OC)[C@@H](C)C(=O)N[C@@H](Cc1ccccc1)c1nnn[nH]1)OC)N(C)C(=O)[C@@H](NC(=O)[C@H](C(C)C)N(C)C)[C@H](C)N=[N+]=[N-],27 nM,41 nM,Active
CC[C@H](C)[C@@H]([C@@H](CC(=O)N1CCC[C@H]1[C@H](OC)[C@@H](C)C(=O)N[C@@H](Cc1ccccc1)C(N)=O)OC)N(C)C(=O)[C@@H](NC(=O)[C@H](C(C)C)N(C)C)[C@H](C)N=[N+]=[N-] (NMe2Val-[Abu(3S-N3)][Dil][Dolaproine]F-NH2),0.4 nM,1.7 nM,–
CC[C@H](C)[C@@H]([C@@H](CC(=O)N1CCC[C@H]1[C@H](OC)[C@@H](C)C(=O)N[C@@H](Cc1ccccc1)C(=O)O)OC)N(C)C(=O)[C@@H](NC(=O)[C@H](C(C)C)N(C)C)[C@@H](C)O (NMe2Val-T[Dil][Dolaproine]F-OH),3.5 nM,5 nM,–
CC[C@H](C)[C@@H]([C@@H](CC(=O)N1CCC[C@H]1[C@H](OC)[C@@H](C)C(=O)NCCc1ccccn1)OC)N(C)C(=O)[C@@H](NC(=O)[C@H](C(C)C)N(C)C)[C@@H](C)O,21 nM,–,–
CC[C@H](C)[C@@H]([C@@H](CC(=O)N1CCC[C@H]1[C@H](OC)[C@@H](C)C(=O)N[C@@H](Cc1ccccc1)C(=O)OC)OC)N(C)C(=O)[C@@H](NC(=O)[C@H](C(C)C)N(C)C)[C@H](C)N=[N+]=[N-] (NMe2Val-[Abu(3S-N3)][Dil][Dolaproine]F-OMe),0.041 nM,0.093 nM,–
CC[C@H](C)[C@@H]([C@@H](CC(=O)N1CCC[C@H]1[C@H](OC)[C@@H](C)C(=O)N[C@@H](Cc1ccccc1)c1nccs1)OC)N(C)C(=O)[C@@H](NC(=O)[C@H](C(C)C)N(C)C)[C@H](C)N=[N+]=[N-],18 nM,33 nM,Active
CC[C@H](C)[C@@H]([C@@H](CC(=O)N1CCC[C@H]1[C@H](OC)[C@@H](C)C(=O)N[C@@H](Cc1ccccc1)C(=O)O)OC)N(C)C(=O)[C@@H](NC(=O)[C@H](C(C)C)N(C)C)[C@H](C)N=[N+]=[N-] (NMe2Val-[Abu(3S-N3)][Dil][Dolaproine]F-OH),> 1000 nM,> 1000 nM,–
CC[C@H](C)[C@@H]([C@@H](CC(=O)N1CCC[C@H]1[C@H](OC)[C@@H](C)C(=O)N[C@@H](Cc1ccccc1)C(=O)NC(C)(C)C)OC)N(C)C(=O)[C@@H](NC(=O)[C@H](C(C)C)N(C)C)[C@H](C)N=[N+]=[N-] (NMe2Val-[Abu(3S-N3)][Dil][Dolaproine]F-NHtBu),0.4 nM,1.2 nM,–
CC[C@H](C)[C@@H]([C@@H](CC(=O)N1CCC[C@H]1[C@H](OC)[C@@H](C)C(=O)NCCc1ccccn1)OC)N(C)C(=O)[C@H](CO)NC(=O)[C@H](C(C)C)N(C)C,> 1000 nM,> 1000 nM,–
CC[C@H](C)[C@@H]([C@@H](CC(=O)N1CCC[C@H]1[C@H](OC)[C@@H](C)C(=O)N[C@@H](Cc1ccccc1)C(=O)O)OC)N(C)C(=O)[C@@H](NC(=O)[C@H](C(C)C)N(C)C)[C@H](C)N (NMe2Val-[Abu(3S-NH2)][Dil][Dolaproine]F-OH),2.5 nM,11 nM,–
CC[C@H](C)[C@@H]([C@@H](CC(=O)N1CCC[C@H]1[C@H](OC)[C@@H](C)C(=O)NCCc1ccccc1Cl)OC)N(C)C(=O)[C@@H](NC(=O)[C@H](C(C)C)N(C)C)[C@H](C)N=[N+]=[N-],13 nM,34 nM,–
CC[C@H](C)[C@@H]([C@@H](CC(=O)N1CCC[C@H]1[C@H](OC)[C@@H](C)C(=O)N[C@@H](Cc1ccccc1)C(=O)OC(C)(C)C)OC)N(C)C(=O)[C@@H](NC(=O)[C@H](C(C)C)N(C)C)[C@H](C)N=[N+]=[N-] (NMe2Val-[Abu(3S-N3)][Dil][Dolaproine]F-OtBu),0.089 nM,0.045 nM,–
CC[C@H](C)[C@@H]([C@@H](CC(=O)N1CCC[C@H]1[C@H](OC)[C@@H](C)C(=O)NCCc1ccccc1)OC)N(C)C(=O)[C@@H](NC(=O)[C@H](C(C)C)N(C)C)[C@H](C)N=[N+]=[N-],3.1 nM,4.7 nM,–

# Continued, values first:
GI50 (HCC1954),GI50 (PC-3),inhibition (Bos taurus),Compound
0.036 nM,0.11 nM,–,CC[C@H](C)[C@@H]([C@@H](CC(=O)N1CCC[C@H]1[C@H](OC)[C@@H](C)C(=O)N[C@@H](Cc1ccccc1)C(=O)OC)OC)N(C)C(=O)[C@H](CN=[N+]=[N-])NC(=O)[C@H](C(C)C)N(C)C (NMe2Val-[Dap(N3)][Dil][Dolaproine]F-OMe)
> 1000 nM,610 nM,–,CC[C@H](C)[C@@H]([C@@H](CC(=O)N1CCC[C@H]1[C@H](OC)[C@@H](C)C(=O)N[C@@H](Cc1ccccc1)C(=O)OC)OC)N(C)C(=O)[C@H](CC(=O)O)NC(=O)[C@H](C(C)C)N(C)C (NMe2Val-D[Dil][Dolaproine]F-OMe)
0.076 nM,0.54 nM,–,CC[C@H](C)[C@@H]([C@@H](CC(=O)N1CCC[C@H]1[C@H](OC)[C@@H](C)C(=O)N[C@@H](Cc1ccccc1)C(=O)OC)OC)N(C)C(=O)[C@@H](NC(=O)[C@H](C(C)C)N(C)C)[C@H](C)N (NMe2Val-[Abu(3S-NH2)][Dil][Dolaproine]F-OMe)
340 nM,–,–,CC[C@H](C)[C@@H]([C@@H](CC(=O)N1CCC[C@H]1[C@H](OC)[C@@H](C)C(=O)N[C@@H](Cc1ccccc1)C(=O)OC)OC)N(C)C(=O)[C@H](CCCCN)NC(=O)[C@H](C(C)C)N(C)C (NMe2Val-K[Dil][Dolaproine]F-OMe)
3.2 nM,3.8 nM,–,CC[C@H](C)[C@@H]([C@@H](CC(=O)N1CCC[C@H]1[C@H](OC)[C@@H](C)C(=O)N[C@@H](Cc1ccccc1)C(=O)OC)OC)N(C)C(=O)[C@H](CS)NC(=O)[C@H](C(C)C)N(C)C (NMe2Val-C[Dil][Dolaproine]F-OMe)
3.5 nM,20 nM,–,CC[C@H](C)[C@@H]([C@@H](CC(=O)N1CCC[C@H]1[C@H](OC)[C@@H](C)C(=O)N[C@@H](Cc1ccccc1)C(=O)OC)OC)N(C)C(=O)[C@H](CN)NC(=O)[C@H](C(C)C)N(C)C (NMe2Val-[Dap][Dil][Dolaproine]F-OMe)
0.34 nM,1.2 nM,–,CC[C@H](C)[C@@H]([C@@H](CC(=O)N1CCC[C@H]1[C@H](OC)[C@@H](C)C(=O)N[C@@H](Cc1ccccc1)C(=O)OC)OC)N(C)C(=O)[C@H](CO)NC(=O)[C@H](C(C)C)N(C)C (NMe2Val-S[Dil][Dolaproine]F-OMe)
0.16 nM,0.38 nM,–,CC[C@H](C)[C@@H]([C@@H](CC(=O)N1CCC[C@H]1[C@H](OC)[C@@H](C)C(=O)N[C@@H](Cc1ccccc1)C(=O)OC)OC)N(C)C(=O)[C@@H](NC(=O)[C@H](C(C)C)N(C)C)[C@@H](C)O (NMe2Val-T[Dil][Dolaproine]F-OMe)
> 1000 nM,> 1000 nM,–,CC[C@H](C)[C@@H]([C@@H](CC(=O)N1CCC[C@H]1[C@H](OC)[C@@H](C)C(=O)N[C@@H](Cc1ccccc1)C(=O)OC)OC)N(C)C(=O)[C@H](CCN)NC(=O)[C@H](C(C)C)N(C)C (NMe2Val-[Dab][Dil][Dolaproine]F-OMe)
0.16 nM,0.36 nM,–,C#CC[C@H](NC(=O)[C@H](C(C)C)N(C)C)C(=O)N(C)[C@@H]([C@@H](C)CC)[C@@H](CC(=O)N1CCC[C@H]1[C@H](OC)[C@@H](C)C(=O)N[C@@H](Cc1ccccc1)C(=O)OC)OC (NMe2Val-[Pra][Dil][Dolaproine]F-OMe)
0.43 nM,1.1 nM,–,CC[C@H](C)[C@@H]([C@@H](CC(=O)N1CCC[C@H]1[C@H](OC)[C@@H](C)C(=O)N[C@@H](Cc1ccccc1)C(=O)OC)OC)N(C)C(=O)[C@H](CCN=[N+]=[N-])NC(=O)[C@H](C(C)C)N(C)C (NMe2Val-[Aha][Dil][Dolaproine]F-OMe)
4.4 nM,19 nM,–,CC[C@H](C)[C@@H]([C@@H](CC(=O)N1CCC[C@H]1[C@H](OC)[C@@H](C)C(=O)N[C@@H](Cc1ccccc1)C(=O)O)OC)N(C)C(=O)[C@H](CO)NC(=O)[C@H](C(C)C)N(C)C (NMe2Val-S[Dil][Dolaproine]F-OH)

# — ChEMBL document CHEMBL4130431, “Synthesis and Evaluation of Dolastatin 10 Analogues Containing Heteroatoms on the Amino Acid Side Chains” (2017)
